Results taken from US5455278A (priority 1994, dated 1995).

What was measured:
Clostridium botulinum = type: cell-based; conditions: anaerobic conditions, 20° C.
Staphylococcus aureus = test: Inhibitory effect of falcarindiol on S. aureus (optical density at 600nm, aerobic); type: cell-based; conditions: aerobic conditions, 20° C.
Escherichia coli = test: Inhibitory effect of falcarindiol on E. coli (optical density at 600nm, aerobic); type: cell-based; conditions: aerobic conditions, 20° C.
Salmonella typhimurium = test: Inhibitory effect of falcarindiol on S. typhimurium (optical density at 600nm, aerobic); type: cell-based; conditions: aerobic conditions, 20° C.
[1] = Solubility of falcarindiol; type: physicochemical
[2] = Inactivation of falcarindiol by heating; type: physicochemical
[3] = Effectiveness of falcarindiol as inhibitor versus pH and aerobic conditions; type: cell-based
[4] = mice; cited from earlier work
L. monocytogenes = test: Effect of oxygen on the inhibitory activity of falcarindiol; conditions: pH 7.5, 20° C.
[5] = tested on: mechanosensitive channels; conditions: giant spheroplasts of E. coli, patch clamp

C=CC(O)C#CC#CC(O)C=CCCCCCCC (stereo not shown) [falcarindiol]
inhibition of C. botulinum (Clostridium botulinum): inhibited
inhibition of S. aureus (Staphylococcus aureus): inhibited
inhibition of E. coli (Escherichia coli): inactive
inhibition of S. typhimurium (Salmonella typhimurium): inactive
solubility in ethyl acetate [1]: readily soluble
stability to heating (activity) [2]: can be inactivated by heating
activity under aerobic conditions ([3]; aerobic conditions): active under aerobic conditions
pH (acidity) values at which it is effective ([3]; pH): above 5
LD50 [4]: about 100 mg/kg of body weight
inactivation of L. monocytogenes under aerobic conditions (L. monocytogenes; aerobic): completely inactivated
lag phase of L. monocytogenes under anaerobic conditions (L. monocytogenes; anaerobic): 15 h
inhibition under aerobic versus anaerobic conditions (L. monocytogenes): much greater under aerobic conditions
activation of mechanosensitive channels [5]: mechanosensitive channels were activated
